# Earlier results in patent US8187800B2, “Methods for selecting active agents for cancer treatment” (Precision Therapeutics, Inc., priority 2007, dated 2012).
# Tested on: breast cancer
# Details: neoadjuvant therapy in breast cancer patients; 4 cycles FEC, then 4 cycles docetaxel
structure (smiles),measurement,value
CC(=O)O[C@@]12CO[C@@H]1C[C@H](O)[C@@]1(C)C(=O)[C@H](O)C3=C(C)[C@@H](OC(=O)[C@H](O)[C@@H](NC(=O)OC(C)(C)C)c4ccccc4)C[C@@](O)([C@@H](OC(=O)c4ccccc4)[C@H]21)C3(C)C [docetaxel],overall clinical response,75%
